The source of these data is patent US10428151B2, “Treatment of hematologic malignancies with an anti-CXCR4 antibody” (BRISTOL-MYERS SQUIBB COMPANY, priority 2011, dated 2019).

One assay has as its system RPMI-8226 cells. Description: RPMI-8226 MM xenograft in SCID mice. The assay is classed as in vivo. On the procedure:
The mice were randomized (n=8) when the tumor volume reached approximately 20 mm^3, dosed on Days 0, 3, 7, 10 and 14 with MDX-1338 (10 mg/kg/dose) alone or in combination with 50 mg/kg lenalidomide or in combination with 0.8 mg/kg bortezomib.

The subject of another assay is B16-CXCR4 cells. Description: B16-CXCR4 lung metastases, C57 mouse systemic tumor model. The assay is classed as in vivo. The settings on record: day 14, 5 mg/kg IP. On the procedure:
In this example, the ability of the F7 anti-CXCR4 mAb to inhibit lung metastases was examined using a C57 mouse systemic tumor model. More specifically, 0.4×10^6 B16-CXCR4 cells (B16 cells transfected to express human CXCR4) were injected intravenously into each of 30 mice of the C57 strain. The mice were randomized into three groups of ten mice each, which were then treated with either (i) vehicle (PBS); (ii) IgG4 isotype control (5 mg/kg); or (iii) F7 IgG4 (5 mg/kg). The antibody or vehicle was injected intraperitoneally 30 minutes after the B16-CXCR4 cells were injected intravenously. Lungs were harvested on day 14 and the number of lung metastasis nodules was quantitated.

A further assay relates to Ramos tumor cells. Description: Ramos cell proliferation, 3H-thymidine incorporation. The format is cell-based, human. The settings on record: 10^−3 to 300 nM; 72 hours. On the procedure:
In this example, the ability of the anti-CXCR4 human antibodies to inhibit proliferation of Ramos tumor cells (a human Burkitt's lymphoma cell line) in vitro was examined. […] The cells were incubated with antibody for 72 hours, with ^3H-thymidine being added for the final 24 hours of incubation to allow for monitoring of cell proliferation. Following the incubation, incorporation of ^3H-thymidine by the cells was measured by standard techniques. The results are shown in the graph of FIG. 11A.
Background: Dividing cells build labelled thymidine or BrdU into new DNA.

The test system of the next assay is CLL cells. The settings on record: 2-200 nM; Kashyap et al., 2012; cited from earlier work.
Assay [1] concerns human umbilical vein endothelial cells (HuVEC). Description: HuVEC capillary tube formation. The format is cell-based. The settings on record: HuVEC on MATRIGEL, 18 hours. How it is done:
In this example, the ability of the anti-CXCR4 human antibodies to inhibit capillary tube formation by human umbilical vein endothelial cells (HuVEC) was examined […]® was diluted 1:1 with RPMI and plated onto the wells of a 96 well plate and allowed to polymerize for 30 minutes at 37° C. HuVEC (from Cambrex, cat. # CC-2519) at 80% confluence were trypsinized and resuspended at 1×10^6 cells per ml in RPMI with 0.5% FBS. Antibodies were well mixed with HuVEC at a final concentration of 3 mg/ml and allowed to incubate at room temperature for 30 minutes. An irrelevant antibody of the same isotype or media alone was used as a negative control. As a positive control of inhibition of tube formation, a mouse anti-human αvβ3 (CD51/CD61) antibody (R&D Systems, cat. # MAB3050) was used. HuVEC with or without antibodies were plated onto the […]®-coated wells and incubated at 37° C. for 18 hours.
The HuVEC incubated with media alone or with the isotype-matched control antibody formed capillary tubes resulting in the appearance of connected cells across the plate with 3-5 points of connection or branch points per cell. […] The cells appeared isolated and with few or no branch points.

In assay [2] the test system is HPAC human pancreatic adenocarcinoma cells. Description: HPAC subcutaneous xenograft. The assay is classed as in vivo, mouse. How it is done: (§1) Additional subcutaneous xenograft tumor models were tested for the ability of anti-CXCR4 antibodies to inhibit tumor growth, in experiments similar to those described above and in Example 9. […] Although the tumor cells in vivo were stainable by the mAb by immunohistochemistry, it is unclear at what stage of their tumor growth CXCR4 began to be expressed.

Another assay relates to MOLP-8 cells. Description: MOLP-8 MM xenograft in SCID mice. The format is in vivo. How it is done: In all the experiments, the mice were injected intraperitoneally on Days 0 and 7 with an IgG4 isotype control and a PBS vehicle control.
In assay [3] the test system is Twist, Snail, Slug, E-Cadherin. The settings on record: Roccaro et al., 2012; cited from earlier work.
In assay [4] the test system is NIH-H226 lung carcinoma cells. Description: NIH-H226 subcutaneous xenograft. The format is in vivo, mouse. How it is done: as §1
In another assay the test system is parental R1610 cells. Description: Apoptosis of parental R1610 cells, Annexin V-FITC/PI. The format is cell-based, hamster. The settings on record: 24 hours. How it is done:
MDX-1338 or isotype control were added to CXCR4-transfected cells (A) or R1610 parental cells (B) and stained with Annexin V-FITC and PI. The percentages of cells that were positive for Annexin V only or doubly positive for both Annexin V and PI double positive are illustrated.
The percent of cells that are positive for Annexin V only or both Annexin V and PI double positive was determined.

For assay [5], the system named is DMS79 human small cell lung carcinoma cells. Description: DMS79 small cell lung carcinoma xenograft. The settings on record: Day 34 post-implantation; 10 mg/kg IP Q3D×5. The assay is classed as in vivo, mouse. How it is done:
In a second experiment, 5×10^6 DMS79 human small cell lung carcinoma cells/mouse were implanted into the flank region of each mouse and allowed to grow to a mean size of 160 mm^3, calculated by length×width×height/2 of the tumors, which was day 7 post-implantation. The mice were randomized into different treatment groups and received intraperitoneal (IP) injections of antibody on a dosing schedule of Q3D×5 (every three days for five times). […] Tumor volumes were measured at regular intervals and the mean and median tumor volume determined for each treatment group at each interval.

A further assay relates to MM.1S cells. Description: MM.1S MM xenograft in SCID mice. The format is in vivo.

Values joined by “and” are separate entries in the source; they are usually repeats but may differ in a detail not shown here. Equal entries are not always repeated.

For the substance “BMS-936564: fully human anti-CXCR4 monoclonal antibody; VH SEQ ID NO: 25, VL SEQ ID NO: 29”, the “delay of mean tumor growth” value in the assay on RPMI-8226 cells (Day 44, 10 mg/kg/dose, compared to vehicle control) was 53%; with MOLP-8 cells (Day 25, 10 mg/kg/dose, compared to isotype antibody control, 10 mg/kg), 66% and 56%. Further, the “mean tumor growth inhibition” value came to 61% in the assay on RPMI-8226 cells (Day 44, compared to isotype control, MDX-1338 10 mg/kg, lenalidomide 50 mg/kg, bortezomib 0.8 mg/kg) and 60% with MM.1S cells (Day 25, compared to isotype control, MDX-1338 10 mg/kg/dose, lenalidomide 100 mg/kg). For the same substance, the “tumor growth inhibition” value is on record as “MDX-1338 = 61%” with RPMI-8226 cells (RPMI-8226); “no tumor growth inhibition” in [2]; “MDX-1338 = 56%” in the assay with MOLP-8 cells (MOLP8); “no tumor growth inhibition” in [4]; “MDX-1338 = 60%” in the assay with MM.1S cells (MM.1S). Besides, the “Number of Lung Metastases Mean” value in the assay with B16-CXCR4 cells was 157. Further, the “Number of Lung Metastases Median” value with B16-CXCR4 cells is recorded as 186. Besides, the “% Inhibition of Lung Mets (Mean)” value in the assay with B16-CXCR4 cells (listed as F7 Anti-CXCR4 IgG4, 5 mg/kg) came to 56%; in the assay on B16-CXCR4 cells (listed as F7 mAb, 5 mg/kg) it was 56%. Also, the “inhibition of Ramos cell proliferation (3H-thymidine incorporation)” value in the assay on Ramos tumor cells is “able to inhibit Ramos cell proliferation”. Moreover, the “cell death in CLL cells cultured alone and in the MRD model” value with CLL cells is given as “induced cell death”. The “inhibition of capillary tube formation” value in assay [1] is listed as “most effective in inhibiting capillary tube formation”. The “% Tumor Growth Inhibition (Monotherapy)” value in the assay on MOLP-8 cells (MOLP-8) came to 66%; in the assay on MM.1S cells (MM.1S), 49%. The “mice remained at end of study” value in the assay on MOLP-8 cells (day 42) is recorded as 5 out of 8. Also, in assay [3], the “effect on EMT-related proteins” value was “inhibits the EMT-related proteins Twist, Snail and Slug, and up-regulates E-Cadherin”. Also, the “apoptosis of parental R1610 cells” value with parental R1610 cells is “did not exhibit apoptosis”. The Mean tumor volume in assay [5] is 620 mm^3. Besides, the Median tumor volume in [5] is given as 599 mm^3. Further, the “TGI (%) (mean)” value in [5] is 38%.
